Here are results for one compound from patent publication US10124033B2, “Peptides and methods of use” (BAXALTA INCORPORATED, priority 2014, dated 2018).

What is called IC50 is the concentration that inhibits the measured activity by half. The low end stands for higher potency, the high end for lower potency.

This assay deals with T1, Protein S (Homo sapiens, UniProt P07225).
T1 sequence (P07225 41-676 limits assumed): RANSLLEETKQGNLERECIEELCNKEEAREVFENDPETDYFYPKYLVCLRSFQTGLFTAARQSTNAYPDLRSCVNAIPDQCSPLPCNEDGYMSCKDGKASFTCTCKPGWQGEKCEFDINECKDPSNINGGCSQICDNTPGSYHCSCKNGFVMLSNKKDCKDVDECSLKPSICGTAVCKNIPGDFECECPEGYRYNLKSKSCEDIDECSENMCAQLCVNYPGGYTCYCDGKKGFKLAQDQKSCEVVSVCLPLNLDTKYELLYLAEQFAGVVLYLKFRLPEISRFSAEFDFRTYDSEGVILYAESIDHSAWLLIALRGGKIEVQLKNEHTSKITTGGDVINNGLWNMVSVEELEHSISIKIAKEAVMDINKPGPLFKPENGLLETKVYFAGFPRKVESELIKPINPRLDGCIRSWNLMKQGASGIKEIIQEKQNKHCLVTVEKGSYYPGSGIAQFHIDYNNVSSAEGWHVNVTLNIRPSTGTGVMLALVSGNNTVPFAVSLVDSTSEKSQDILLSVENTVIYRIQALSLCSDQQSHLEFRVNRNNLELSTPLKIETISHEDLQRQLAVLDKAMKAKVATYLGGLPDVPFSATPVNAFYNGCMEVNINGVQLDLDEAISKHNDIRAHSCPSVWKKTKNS
The assay is described as follows: competition (IC50) ELISA with biotinylated tracer peptide JBS0684. The format is binding. In a few lines: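 Competition ELISA on plate-coated Protein S (3 μg/mL): serially diluted peptides mixed with biotinylated tracer JBS0684 at its binding-ELISA EC90, incubated 1.5 h in HEPES/NaCl/CaCl2/Tween buffer, pH 7.35. Bound tracer detected via HRP-streptavidin and TMB colour; IC50 from competition curve.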

Residues, ends and D or L forms follow the SMILES beside them.

For the compound `CC(=O)N[C@H](C(=O)NCC(=O)N[C@@H](CC(C)C)C(=O)N[C@H](C(=O)N[C@@H](CO)C(=O)N[C@@H](C)C(=O)NCC(=O)N[C@@H](Cc1c[nH]c2ccccc12)C(=O)N[C@@H](Cc1ccc(O)cc1)C(=O)N[C@@H](CC(=O)O)C(=O)N[C@@H](Cc1ccc(O)cc1)C(=O)N[C@@H](CC(N)=O)C(=O)N[C@@H](Cc1ccccc1)C(=O)N[C@@H](CC(=O)O)C(=O)N[C@@H](Cc1c[nH]cn1)C(=O)N[C@@H](Cc1ccc(O)cc1)C(=O)N[C@@H](CCCNC(=N)N)C(=O)N[C@@H](CCC(=O)O)C(=O)N[C@@H](Cc1ccccc1)C(=O)N[C@H](C(N)=O)[C@@H](C)O)C(C)C)[C@@H](C)O` [JBS2572] (Ac-TGLVSAGWYDYNFDHYREFT-NH2), the “increase of affinity compared to JBS2512” value (His to Leu substitution at position 3) was 1.6 fold. Where the note is “competition ELISA, tracer JBS0684, re-synthesized peptides”, this compound registered a 50% inhibitory concentration (IC50) of 2.5 ± 0.3 nM.
